{"source": "patent US20250099423A1", "about": "“PIPERAZINE-BASED AGONISTS OF LFA-1 AND VLA-4” (Texas Heart Institute, priority 2021, published 2025)", "key": {"α4β1/VCAM-1": {"molecular_target": "T1, α4β1/VCAM-1 (Homo sapiens, UniProt P05556+P13612)", "T1 construct": "The Jurkat (VCAM-1 assays) and HSB (ICAM-1 assays) cell lines were obtained from American Type Culture Collection; endogenous in cells; host or cells: Jurkat cells (ATCC)", "T1 sequence (P13612 34-1032)": "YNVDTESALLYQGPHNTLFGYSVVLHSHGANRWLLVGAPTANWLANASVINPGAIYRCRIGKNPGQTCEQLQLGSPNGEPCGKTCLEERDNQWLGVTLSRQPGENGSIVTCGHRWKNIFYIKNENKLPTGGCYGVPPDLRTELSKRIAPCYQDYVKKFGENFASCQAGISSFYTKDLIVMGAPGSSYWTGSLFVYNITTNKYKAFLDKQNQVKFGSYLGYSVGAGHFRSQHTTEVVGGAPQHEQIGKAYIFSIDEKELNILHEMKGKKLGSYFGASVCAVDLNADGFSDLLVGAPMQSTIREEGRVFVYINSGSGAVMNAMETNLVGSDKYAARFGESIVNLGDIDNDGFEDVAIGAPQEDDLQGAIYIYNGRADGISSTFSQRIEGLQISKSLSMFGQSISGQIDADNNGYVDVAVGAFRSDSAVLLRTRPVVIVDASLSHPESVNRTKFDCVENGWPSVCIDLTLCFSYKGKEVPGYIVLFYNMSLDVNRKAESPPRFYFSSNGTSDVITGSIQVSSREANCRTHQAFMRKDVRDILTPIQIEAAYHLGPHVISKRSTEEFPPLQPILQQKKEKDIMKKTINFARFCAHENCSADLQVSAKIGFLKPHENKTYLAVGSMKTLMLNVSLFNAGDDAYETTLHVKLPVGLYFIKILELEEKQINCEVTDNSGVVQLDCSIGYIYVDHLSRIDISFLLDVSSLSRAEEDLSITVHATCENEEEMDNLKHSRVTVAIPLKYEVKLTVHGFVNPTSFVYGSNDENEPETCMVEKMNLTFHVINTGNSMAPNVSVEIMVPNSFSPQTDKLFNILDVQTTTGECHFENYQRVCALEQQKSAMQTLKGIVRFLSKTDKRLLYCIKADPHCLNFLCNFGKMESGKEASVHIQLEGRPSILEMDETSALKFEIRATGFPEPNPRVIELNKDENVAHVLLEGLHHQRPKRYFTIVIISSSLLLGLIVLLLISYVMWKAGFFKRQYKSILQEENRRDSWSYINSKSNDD", "T1 sequence (P05556 21-798)": "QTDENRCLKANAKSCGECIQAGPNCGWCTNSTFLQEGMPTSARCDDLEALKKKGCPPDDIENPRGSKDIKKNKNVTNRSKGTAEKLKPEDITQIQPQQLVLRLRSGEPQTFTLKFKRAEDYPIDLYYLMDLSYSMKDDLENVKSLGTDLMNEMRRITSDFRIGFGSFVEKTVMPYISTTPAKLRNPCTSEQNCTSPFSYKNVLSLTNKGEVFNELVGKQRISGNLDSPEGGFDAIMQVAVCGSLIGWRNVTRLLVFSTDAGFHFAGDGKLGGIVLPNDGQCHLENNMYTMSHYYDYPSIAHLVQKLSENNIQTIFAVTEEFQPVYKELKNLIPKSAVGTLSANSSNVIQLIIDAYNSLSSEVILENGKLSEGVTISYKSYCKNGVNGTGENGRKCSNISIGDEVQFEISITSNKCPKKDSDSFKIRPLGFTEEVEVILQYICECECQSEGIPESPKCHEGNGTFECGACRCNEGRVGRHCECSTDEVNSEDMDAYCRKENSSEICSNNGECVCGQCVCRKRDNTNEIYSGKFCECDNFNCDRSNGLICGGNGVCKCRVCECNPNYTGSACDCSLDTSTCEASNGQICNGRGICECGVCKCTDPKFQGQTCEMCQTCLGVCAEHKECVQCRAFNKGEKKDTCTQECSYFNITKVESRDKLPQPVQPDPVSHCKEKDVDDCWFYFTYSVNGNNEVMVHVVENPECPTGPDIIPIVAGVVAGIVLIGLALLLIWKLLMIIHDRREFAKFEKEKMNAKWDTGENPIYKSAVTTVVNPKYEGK", "test": "Static cell adhesion assay, Jurkat cells on VCAM-1 (α4β1/VCAM-1)", "type": "cell-based", "conditions": "ratio compound activity/control THI0019 (average 33 μM) run on the same plate", "method": "(§1) For in vitro cell adhesion assays, compounds were dissolved in DMSO to make a series of stock solutions such that a 1:100 dilution in assay buffer would yield the desired final working concentrations in 1% DMSO (vehicle). Human VCAM-1 and ICAM-1 were purchased from R&D Systems (Minneapolis, MN). The Jurkat (VCAM-1 assays) and HSB (ICAM-1 assays) cell lines were obtained from American Type Culture Collection (Manassas, VA) and were maintained in recommended culture media.\n(§2) Assays were performed as previously described in 1. Vanderslice, P., Woodside, D. G., Caivano, A. R., Decker, E. R., Munsch, C. L., Sherwood, S. J., Lejeune, W. S., Miyamoto, Y. J., McIntyre, B. W., Tilton, R. G., and Dixon, R. A. (2010) Potent in vivo suppression of inflammation by selectively targeting the high affinity conformation of integrin alpha4beta1. Biochem Biophys Res Commun 400, 619-624; and 2. Vanderslice, P., Biediger, R. J., Woodside, D. G., Brown, W. S., Khounlo, S., Warier, N. D., Gundlach, C. W. t., Caivano, A. R., Bornmann, W. G., Maxwell, D. S., McIntyre, B. W., Willerson, J. T., and Dixon, R. A. (2013) Small molecule agonist of very late antigen-4 (VLA-4) integrin induces progenitor cell adhesion. J Biol Chem 288, 19414-19428. VCAM-1 or ICAM-1 ligand in 50 μL of 50 mM Tris-HCl (pH 7.4), 150 mM NaCl, (TBS) was added to wells of a 96-well plate and allowed to coat overnight at 4° C. To maximize the window to evaluate agonist activity, a sub-optimal coating concentration of ligand was used, typically between 0.5 and 5 μg/mL in 50 μL TBS for VCAM-1 and ICAM-1 respectively. This ligand concentration corresponded approximately to that which would yield≤ 5% adhesion as determined by dose-response curves. Briefly, 2×10^6 cells were labeled for 30 minutes with calcein-AM (Molecular Probes), washed, resuspended in binding buffer, and added to triplicate wells of ligand-coated plates (2×10^5 cells/well) that had been blocked with 2% BSA. After a 30-minute incubation at 37° C., the plates were washed 3 times with binding buffer, the adherent cells were lysed, and fluorescence was measured on a Tecan Safire^2 plate reader. The binding buffer was PBS with 1 mM MgCl2, 50% FBS for α4β1/VCAM-1 assays and PBS with 2 mM MgCl2, 5 mM EGTA, 50% FBS for αLβ2/ICAM-1 assays. EC50 is defined as the concentration of compound required to achieve 50% of the maximal response."}, "LFA-1": {"molecular_target": "T2, LFA-1 (Homo sapiens, UniProt P05107+P20701)", "T2 construct": "The Jurkat (VCAM-1 assays) and HSB (ICAM-1 assays) cell lines were obtained from American Type Culture Collection; endogenous in cells; host or cells: HSB cells (ATCC)", "T2 sequence (P20701 26-1170)": "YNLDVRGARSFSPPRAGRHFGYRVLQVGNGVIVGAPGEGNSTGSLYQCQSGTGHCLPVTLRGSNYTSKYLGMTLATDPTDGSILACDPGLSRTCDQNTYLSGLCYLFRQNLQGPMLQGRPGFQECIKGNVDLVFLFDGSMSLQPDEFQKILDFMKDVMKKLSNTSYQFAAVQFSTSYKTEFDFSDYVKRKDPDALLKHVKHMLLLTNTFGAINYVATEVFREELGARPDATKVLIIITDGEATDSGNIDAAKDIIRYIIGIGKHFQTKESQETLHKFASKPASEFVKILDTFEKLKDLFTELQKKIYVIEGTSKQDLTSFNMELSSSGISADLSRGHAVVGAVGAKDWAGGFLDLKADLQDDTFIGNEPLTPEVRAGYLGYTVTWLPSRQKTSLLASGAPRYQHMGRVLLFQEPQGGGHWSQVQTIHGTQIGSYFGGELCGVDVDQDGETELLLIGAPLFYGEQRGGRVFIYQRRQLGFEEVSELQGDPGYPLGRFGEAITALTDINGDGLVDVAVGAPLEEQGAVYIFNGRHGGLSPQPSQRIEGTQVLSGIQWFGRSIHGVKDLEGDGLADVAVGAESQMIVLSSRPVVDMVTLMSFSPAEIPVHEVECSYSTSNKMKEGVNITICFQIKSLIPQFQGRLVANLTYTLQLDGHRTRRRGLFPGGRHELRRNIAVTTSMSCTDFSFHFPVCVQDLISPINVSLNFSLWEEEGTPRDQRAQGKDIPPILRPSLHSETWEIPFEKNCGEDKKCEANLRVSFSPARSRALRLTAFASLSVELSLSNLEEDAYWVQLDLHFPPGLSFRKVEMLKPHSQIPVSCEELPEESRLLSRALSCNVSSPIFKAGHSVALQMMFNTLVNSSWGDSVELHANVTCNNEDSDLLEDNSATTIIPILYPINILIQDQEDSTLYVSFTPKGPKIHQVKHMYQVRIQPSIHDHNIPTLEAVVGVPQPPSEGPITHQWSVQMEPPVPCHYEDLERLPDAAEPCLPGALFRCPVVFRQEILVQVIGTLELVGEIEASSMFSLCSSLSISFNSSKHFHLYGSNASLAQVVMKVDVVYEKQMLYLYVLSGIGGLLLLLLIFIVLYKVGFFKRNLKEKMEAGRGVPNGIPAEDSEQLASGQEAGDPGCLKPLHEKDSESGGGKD", "T2 sequence (P05107 23-769)": "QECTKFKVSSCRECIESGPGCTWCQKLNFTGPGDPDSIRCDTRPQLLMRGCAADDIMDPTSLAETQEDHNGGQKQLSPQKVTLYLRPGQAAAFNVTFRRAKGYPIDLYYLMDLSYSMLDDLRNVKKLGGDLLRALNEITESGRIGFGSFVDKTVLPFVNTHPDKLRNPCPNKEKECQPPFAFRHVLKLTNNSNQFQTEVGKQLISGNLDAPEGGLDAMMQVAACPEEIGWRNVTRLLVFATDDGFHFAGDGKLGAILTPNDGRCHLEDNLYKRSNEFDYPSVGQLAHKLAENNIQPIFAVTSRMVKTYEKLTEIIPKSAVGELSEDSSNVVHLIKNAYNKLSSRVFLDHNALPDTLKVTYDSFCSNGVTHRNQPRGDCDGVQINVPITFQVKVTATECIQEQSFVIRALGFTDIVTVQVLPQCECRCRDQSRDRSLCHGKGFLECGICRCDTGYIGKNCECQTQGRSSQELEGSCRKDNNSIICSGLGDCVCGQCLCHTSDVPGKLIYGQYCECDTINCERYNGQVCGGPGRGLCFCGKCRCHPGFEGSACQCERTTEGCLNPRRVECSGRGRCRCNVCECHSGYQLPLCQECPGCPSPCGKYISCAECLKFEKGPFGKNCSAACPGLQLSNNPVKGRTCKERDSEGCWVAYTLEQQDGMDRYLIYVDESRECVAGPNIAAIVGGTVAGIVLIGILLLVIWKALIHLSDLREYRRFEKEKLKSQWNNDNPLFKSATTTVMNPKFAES", "test": "Static cell adhesion assay, HSB cells on ICAM-1 (αLβ2/ICAM-1; LFA-1)", "type": "cell-based", "conditions": "Dose 3 μM, compound and THI0349 at the same concentration; ratio >1 = more potent agonist", "method": "as §1, §2\nTHI0019 and THI0349 (average 11 μM) reported values here were obtained under the assay conditions reported herein and ran higher in the presence of serum than those values under different assay conditions. […] Relative to THI0019 (average 33 μM) as a control against CS1, the ratio of (compound activity/control) is as follows: Group I< or =1. Group II at least a ratio of >1 up to 2× that of THI0019 ran on the same plate; Group III is >2× of THI0019 but less than 5×; and Group IV>5× of THI0019 (with an upper limit of approximately 200 mM). In relation to LAD (Leukocyte Adhesion Deficiency), LFA-1 ratios are determined by dividing the relative fluorescence units (RFU) of each compound over that of the reference standard of THI0349, (RFU Compound/RFU of THI0349). Against LFA-1, the signal for THI0349 at 3 μM was compared to the claimed compounds at the same concentration."}}, "data": [{"compound": "COc1ccc(CN(Cc2ccc(OC)cc2)C(=O)CN2CCN(CC(=O)N(Cc3ccc(OC)cc3)Cc3ccc(OC)cc3)C(=O)C2)cc1", "note": "[2,2′-(2-oxopiperazine-1,4-diyl)bis(N,N-bis(4-methoxybenzyl)acetamide)]", "values": [{"measurement": "Average Ratio Compound to THI0019 (Activity against CS1)", "setting": "α4β1/VCAM-1", "result": "Group I (Group I< or =1)"}, {"measurement": "LAD Raw Fluorescence Units against LFA-1; Ratio of raw counts Compound/THI0349", "setting": "LFA-1", "result": 5.9, "unit": "fold increased response"}]}, {"compound": "COc1ccc(CN(CC(C)C)C(=O)CN2CC(=O)N(CC(=O)N(Cc3ccc(OC)cc3)CC(C)C)CC2=O)cc1", "note": "[2,2′-(2,5-dioxopiperazine-1,4-diyl)bis(N-isobutyl-N-(4-methoxybenzyl)acetamide)]", "values": [{"measurement": "Average Ratio Compound to THI0019 (Activity against CS1)", "setting": "α4β1/VCAM-1", "result": "Group III (Group III is >2× of THI0019 but less than 5×)"}, {"measurement": "LAD Raw Fluorescence Units against LFA-1; Ratio of raw counts Compound/THI0349", "setting": "LFA-1", "result": 0.15, "unit": "fold response"}]}, {"compound": "COc1ccc(CN(Cc2ccc(OC)cc2)C(=O)CCCCN2CCN(C(=O)OCc3ccccc3)CC2)cc1", "note": "[benzyl 4-(5-(bis(4-methoxybenzyl)amino)-5-oxopentyl)piperazine-1-carboxylate]", "values": [{"measurement": "Average Ratio Compound to THI0019 (Activity against CS1)", "setting": "α4β1/VCAM-1", "result": "Group II (Group II at least a ratio of >1 up to 2× that of THI0019 ran on the same plate)"}, {"measurement": "LAD Raw Fluorescence Units against LFA-1; Ratio of raw counts Compound/THI0349", "setting": "LFA-1", "result": 4.3, "unit": "fold increased response"}]}, {"compound": "COc1ccc(CN(Cc2ccc(N(C)C)cc2)C(=O)OCCN2CC(=O)N(CCOC(=O)N(Cc3ccc(OC)cc3)Cc3ccc(N(C)C)cc3)CC2=O)cc1", "note": "[(2,5-dioxopiperazine-1,4-diyl)bis(ethane-2,1-diyl) bis(4-(dimethylamino)benzyl (4-methoxybenzyl)carbamate)]", "values": [{"measurement": "Average Ratio Compound to THI0019 (Activity against CS1)", "setting": "α4β1/VCAM-1", "result": "Group I (Group I< or =1)"}, {"measurement": "LAD Raw Fluorescence Units against LFA-1; Ratio of raw counts Compound/THI0349", "setting": "LFA-1", "result": 9.9, "unit": "fold increased response"}]}, {"compound": "COc1ccc(CN(CC(C)C)C(=O)CN2CCN(CC(=O)N(Cc3ccc(OC)cc3)CC(C)C)CC2)cc1", "note": "[2,2′-(piperazine-1,4-diyl)bis(N-isobutyl-N-(4-methoxybenzyl)acetamide)]", "values": [{"measurement": "Average Ratio Compound to THI0019 (Activity against CS1)", "setting": "α4β1/VCAM-1", "result": "Group IV (Group IV>5× of THI0019 (with an upper limit of approximately 200 mM))"}, {"measurement": "LAD Raw Fluorescence Units against LFA-1; Ratio of raw counts Compound/THI0349", "setting": "LFA-1", "result": 0.9, "unit": "fold response"}]}, {"compound": "O=C(CCCCN1CCN(C(=O)OCc2ccccc2)CC1)N(Cc1cccs1)Cc1cccs1", "note": "[benzyl 4-(5-(bis(thiophen-2-ylmethyl)amino)-5-oxopentyl)piperazine-1-carboxylate]", "values": [{"measurement": "Average Ratio Compound to THI0019 (Activity against CS1)", "setting": "α4β1/VCAM-1", "result": "Group I (Group I< or =1)"}, {"measurement": "LAD Raw Fluorescence Units against LFA-1; Ratio of raw counts Compound/THI0349", "setting": "LFA-1", "result": 0.9, "unit": "fold response"}]}, {"compound": "COc1ccc(CN(Cc2ccc(O)cc2)C(=O)CN2CCN(C(=O)OCc3ccccc3)CC2)cc1", "note": "[benzyl 4-(2-((4-hydroxybenzyl)(4-methoxybenzyl)amino)-2-oxoethyl)piperazine-1-carboxylate]", "values": [{"measurement": "Average Ratio Compound to THI0019 (Activity against CS1)", "setting": "α4β1/VCAM-1", "result": "Group II (Group II at least a ratio of >1 up to 2× that of THI0019 ran on the same plate)"}, {"measurement": "LAD Raw Fluorescence Units against LFA-1; Ratio of raw counts Compound/THI0349", "setting": "LFA-1", "result": 1.3, "unit": "fold increased response"}]}, {"compound": "COc1ccc(CN(Cc2ccc(N(C)C)cc2)C(=O)CN2CCN(C(=O)c3cccc(OC)c3)CC2=O)cc1", "note": "[N-(4-(dimethylamino)benzyl)-2-(4-(3-methoxybenzoyl)-2-oxopiperazin-1-yl)-N-(4-methoxybenzyl)acetamide]", "values": [{"measurement": "Average Ratio Compound to THI0019 (Activity against CS1)", "setting": "α4β1/VCAM-1", "result": "Group IV (Group IV>5× of THI0019 (with an upper limit of approximately 200 mM))"}, {"measurement": "LAD Raw Fluorescence Units against LFA-1; Ratio of raw counts Compound/THI0349", "setting": "LFA-1", "result": 1.2, "unit": "fold increased response"}]}, {"compound": "COc1cccc(CN(Cc2cccc(OC)c2)C(=O)CN2CCN(C(=O)OCc3ccccc3)CC2)c1", "note": "[benzyl 4-(2-(bis(3-methoxybenzyl)amino)-2-oxoethyl)piperazine-1-carboxylate]", "values": [{"measurement": "Average Ratio Compound to THI0019 (Activity against CS1)", "setting": "α4β1/VCAM-1", "result": "Group I (Group I< or =1)"}, {"measurement": "LAD Raw Fluorescence Units against LFA-1; Ratio of raw counts Compound/THI0349", "setting": "LFA-1", "result": 1.42, "unit": "fold increased response"}]}, {"compound": "COc1ccc(CN(CC(C)C)C(=O)CN2CCN(CC(=O)N(Cc3ccc(OC)cc3)CC(C)C)C(=O)C2)cc1", "note": "[2,2′-(2-oxopiperazine-1,4-diyl)bis(N-isobutyl-N-(4-methoxybenzyl)acetamide)]", "values": [{"measurement": "Average Ratio Compound to THI0019 (Activity against CS1)", "setting": "α4β1/VCAM-1", "result": "Group III (Group III is >2× of THI0019 but less than 5×)"}, {"measurement": "LAD Raw Fluorescence Units against LFA-1; Ratio of raw counts Compound/THI0349", "setting": "LFA-1", "result": 0.19, "unit": "fold response"}]}, {"compound": "O=C(CN1CCN(CC(=O)N(Cc2cccs2)Cc2cccs2)CC1)N(Cc1cccs1)Cc1cccs1", "note": "[2,2′-(piperazine-1,4-diyl)bis(N,N-bis(thiophen-2-ylmethyl)acetamide)]", "values": [{"measurement": "Average Ratio Compound to THI0019 (Activity against CS1)", "setting": "α4β1/VCAM-1", "result": "Group II (Group II at least a ratio of >1 up to 2× that of THI0019 ran on the same plate)"}, {"measurement": "LAD Raw Fluorescence Units against LFA-1; Ratio of raw counts Compound/THI0349", "setting": "LFA-1", "result": 0.4, "unit": "fold response"}]}, {"compound": "COc1cccc(CN(Cc2ccc(N(C)C)cc2)C(=O)OCCN2CC(=O)N(CCOC(=O)N(Cc3ccc(N(C)C)cc3)Cc3cccc(OC)c3)CC2=O)c1", "note": "[(2,5-dioxopiperazine-1,4-diyl)bis(ethane-2,1-diyl) bis(4-(dimethylamino)benzyl (3-methoxybenzyl)carbamate)]", "values": [{"measurement": "Average Ratio Compound to THI0019 (Activity against CS1)", "setting": "α4β1/VCAM-1", "result": "Group I (Group I< or =1)"}, {"measurement": "LAD Raw Fluorescence Units against LFA-1; Ratio of raw counts Compound/THI0349", "setting": "LFA-1", "result": 7.8, "unit": "fold increased response"}]}, {"compound": "COc1ccc(CN(Cc2ccc(N(C)C)cc2)C(=O)CN2CCN(C(=O)OCc3ccccc3)CC2)cc1", "note": "[benzyl 4-(2-((4-(dimethylamino)benzyl)(4-methoxybenzyl)amino)-2-oxoethyl)piperazine-1-carboxylate]", "values": [{"measurement": "Average Ratio Compound to THI0019 (Activity against CS1)", "setting": "α4β1/VCAM-1", "result": "Group III (Group III is >2× of THI0019 but less than 5×)"}, {"measurement": "LAD Raw Fluorescence Units against LFA-1; Ratio of raw counts Compound/THI0349", "setting": "LFA-1", "result": 1.2, "unit": "fold increased response"}]}]}
